Laboratory results as given in BigSolDB 2.1.

N#CN=C(N)N
solubility (mole fraction)
Details | 283.15 K | 288.15 K | 293.15 K | 298.15 K | 303.15 K | 308.15 K | 313.15 K | 318.15 K | 323.15 K
in DMF | 0.239 | 0.248 | 0.258 | 0.259 | 0.262 | 0.265 | 0.274 | 0.276 | 0.284
in water | 0.00474 | 0.00594 | 0.00693 | 0.00897 | 0.0106 | 0.0134 | 0.0173 | 0.021 | 0.0244
